The source of these data is US5278068A, “Biologically pure culture of Cytospora useful as angiotensin II antagonist” (Merck & Co., Inc., priority 1992, dated 1994).

The target in test [1] is T1, angiotensin II receptor, site 2 (rat adrenal membranes) (Rattus norvegicus, UniProt P35351).
T1 construct: Adrenal membranes for the receptor assay were readied first by placing cleaned, whole adrenal glands in microcentrifuge tubes; from tissue; host or cells: rat adrenal gland membranes
T1 sequence (P35351 1-363): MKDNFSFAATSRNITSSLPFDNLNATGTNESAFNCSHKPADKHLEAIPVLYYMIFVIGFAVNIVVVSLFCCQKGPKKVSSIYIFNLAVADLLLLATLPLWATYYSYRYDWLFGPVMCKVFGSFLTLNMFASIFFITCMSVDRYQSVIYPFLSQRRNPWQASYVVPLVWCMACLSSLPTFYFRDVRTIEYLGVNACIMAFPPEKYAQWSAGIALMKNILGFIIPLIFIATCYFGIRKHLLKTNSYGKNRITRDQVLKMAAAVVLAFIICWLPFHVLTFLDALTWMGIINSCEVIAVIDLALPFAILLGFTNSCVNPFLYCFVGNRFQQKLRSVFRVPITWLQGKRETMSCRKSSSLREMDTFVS
In words: Receptor Assay using Rat Adrenal Gland Preparation (125I-Angiotensin II binding). The conditions noted are these: at site 2, 37° C., 90 minutes. The text has this:
Angiotensin II (AII) is a powerful arterial vasoconstrictor, and it exerts its action by interacting with specific receptors present on cell membranes. The compounds produced by Cytospora sp. are competitive antagonists of AII at receptor sites. The usefulness of compounds as AII antagonists may be determined from the results of certain receptor binding assays. The initial assay is that using rat adrenal glands and the results of this assay are described herein.
Adrenal membranes for the receptor assay were readied first by placing cleaned, whole adrenal glands in microcentrifuge tubes (20 glands per tube), and freezing and storing under liquid nitrogen. As needed, a microcentrifuge tube of adrenal glands was homogenized in 20 ml 50 mM tris (hydroxymethyl)aminomethane hydrochloride (Tris-HCl) pH 7.7 and centrifuged at 20,000 rpm for 15 minutes at 4° C. […]
For the assay, the adrenal membrane preparation in one vial was resuspended in 30 ml of 100 mM Tris-HCl pH 7.4 with 5 mM MgCl2, 0.2% bovine serum albumin and 0.2 mg/ml bacitracin. […] The vials are counted with a gamma counter for one minute and percent inhibition determined from counts/min (CPM) as follows: [formula] The IC50 is determined by plotting percent inhibition v. concentration of compound tested.

The next test deals with male Sprague-Dawley rats. The following applies: rat; known activity; cited from earlier work.
The subject of a further test is rats. The conditions noted are these: rat; known activity; cited from earlier work.

Several values for one entry are separate records, joined by “and”; a condition that tells them apart may be missing. Equal values may be shown once.

Consider `CCCCCC1=C(C=O)C2OC(C)(C)C(O)CC23OC3C1=O` (stereo not drawn) [Compound A], for which the IC50 (usually the point on the concentration scale where inhibition reaches its midpoint) in test [1] is 1620 to 3240 nM and 1000 to 2000 nM. For `CN1C(=O)CN=C(c2ccccc2)c2cc(Cl)ccc21` [Diazepam], in the test with male Sprague-Dawley rats, the “activity in conditioned emotional response assay” value is recorded as “active in this assay”.

Take `CNC(=O)Oc1ccc2c(c1)[C@]1(C)CCN(C)[C@@H]1N2C` [physostigmine]: in the test on rats, the “activity in passive avoidance assay” value is “known to be active”.
